Assay results published in a melting point compilation (Tetko et al.).

Row | SMILES | melting point
1 | O=C1Nc2cc(SCc3ccccc3)ccc2C1=O | 248 to 250 °C
2 | Fc1ccc(Nc2nnc(S)s2)cc1 | 185 to 187 °C
3 | COCC1(C)CNC(=O)C1 (stereo not given) | 62 to 64 °C
4 | O=[N+]([O-])c1cc(CCl)c2c(c1)COCO2 | 94 to 96 °C
5 | COc1cc(CCl)ccc1S(C)(=O)=O | 106 to 108 °C
6 | O=C1NC(=O)C2(CCc3ccccc32)N1 (stereo not given) | 229 to 231 °C
7 | Nc1nc(SCCO)n[nH]1 | 126 to 128 °C
8 | Cc1nnc2ccc(C#N)cn12 | 201 to 203 °C
9 | NS(=O)(=O)c1cccc(-n2cnnn2)c1 | 181 to 183 °C
10 | O=Cc1cc(F)cc(F)c1 | 17 to 19 °C
11 | O=C(O)c1cccc(F)c1Sc1ccccc1 | 161 to 163 °C
12 | Fc1cc(CBr)ccc1Br | 38 to 40 °C
13 | O=C(O)C(Sc1ccc(F)cc1F)c1ccccc1 (stereo not given) | 109 to 111 °C
14 | COc1cccc(-n2cncn2)c1 | 95 to 97 °C
15 | Cn1cnc2c(Br)cccc21 | 101 to 103 °C
16 | CC(Cl)c1nc2scc(-c3ccccc3)c2c(=O)[nH]1 (stereo not given) | 165 to 167 °C
17 | CCOc1cc(C#N)cc(Cl)c1O | 126 to 128 °C
18 | O=C1Nc2c(Br)ccc(Br)c2C1=O | 271 to 273 °C
19 | C=CCNc1nnc(S)s1 | 133 to 135 °C
20 | OC(c1ccncc1)c1ccc(F)cc1 (stereo not given) | 136 to 138 °C
21 | Cc1cnc(=S)[nH]c1 | 239 to 241 °C

Row | SMILES | melting point
22 | O=C(CCCl)Nc1ccc2[nH]c(=O)[nH]c2c1 | 299 to 301 °C
23 | N#Cc1nnc[nH]1 | 188 to 190 °C
24 | COc1cccc(-c2nc(C=O)cs2)c1 | 92 to 94 °C
25 | Nc1cccc(CS(=O)(=O)Cc2ccccc2)c1 | 120 to 122 °C
26 | O=C(NO)c1ccc(Br)s1 | 152 to 160 °C
27 | Nn1c(S)nnc1SCc1ccccc1 | 157 to 159 °C
28 | CCC(CC)n1ncc(C(=O)O)c1C | 154 to 156 °C
29 | NCCCc1c[nH]c2ccccc12 | 62 to 64 °C
30 | O=Cc1cnn(Cc2ccccc2Cl)c1 | 54 to 56 °C
31 | Cc1noc(COc2ccc(O)cc2)n1 | 62 to 64 °C
32 | Cc1ccc(-c2csc(Cl)n2)cc1 | 93 to 95 °C
33 | Cc1nn(Cc2ccc(Cl)cc2)c(C)c1CO | 132 to 134 °C
34 | O=C(O)c1cccc(NC(=O)c2cccc(Br)c2)c1 | 273 to 275 °C
35 | O=C(c1ccc(Cl)c(Cl)c1)C1CC1 | 29 to 31 °C
36 | OCc1ccncc1Cl | 118 to 120 °C
37 | O=C(O)CCCCc1ccc(O)c(O)c1 | 93 to 95 °C
38 | O=C1COc2cccc(S(=O)(=O)Cl)c2N1 | 96 to 98 °C
39 | NCC(O)c1ccc(Cl)cc1 (stereo not given) | 97 to 99 °C
40 | COc1ccc(F)cc1CCl | 52 to 53 °C
41 | O=C(O)c1cnoc1-c1ccc(Cl)s1 | 191 to 193 °C
42 | CC(O)c1nc2cc(C(F)(F)F)ccc2n1C (stereo not given) | 99 to 101 °C

Row | SMILES | melting point
43 | N#Cc1cc(Cl)ccc1CO | 99 to 101 °C
44 | Cc1cc([N+](=O)[O-])n[nH]1 | 153 to 155 °C
45 | O=c1cc(C(F)(F)F)[nH]c(=O)[nH]1 | 210 to 212 °C
46 | Brc1ccccc1Oc1ccncc1 | 68 to 70 °C
47 | O=C(Nc1ccc(O)cc1)c1ccccc1 | 215 to 217 °C
48 | O=[N+]([O-])c1cc(S(=O)(=O)C(F)(F)F)ccc1Cl | 57 to 59 °C
49 | O=C(CCc1ccccc1Cl)c1ccccc1 | 46 to 48 °C
50 | COC(=O)C1C2CCC(N2)C1C(=O)OC (stereo not given) | 77 to 79 °C
51 | Cc1nn2c(nc(Cl)c3ccccc32)c1Cl | 176 to 178 °C
52 | COc1cc(Br)cc(F)c1C#N | 75 to 77 °C
53 | Cc1ccc(NS(=O)(=O)c2cc(N)ccc2Cl)c(C)c1 | 57 to 59 °C
54 | N#CCN1CCc2ccc(N)cc21 | 87 to 89 °C
55 | O=C(O)CNS(=O)(=O)c1ccc(Cl)s1 | 142 to 144 °C
56 | O=C(CCl)c1ccc2c(c1)COC2 | 109 to 111 °C
57 | Nc1ccc(S(=O)(=O)Nc2cccnc2)cc1 | 256 to 258 °C
58 | Nc1cc(-c2ccc(Br)o2)no1 | 144 to 146 °C
59 | CS(=O)(=O)c1ccc(-c2nc(CCl)cs2)cc1 | 151 to 153 °C
60 | Nc1ccc2nc(-c3ccccn3)oc2c1 | 178 to 180 °C
61 | OCc1cn(-c2ccccc2)nc1-c1ccccc1 | 91 to 93 °C
62 | NC(=NO)c1ccc(Cn2cnc3ccccc32)cc1 | 237 to 239 °C
63 | CC(c1ccccc1)n1c(N)nc2ccccc21 (stereo not given) | 124 to 126 °C

More lines, now with the values ahead:

Row | melting point | SMILES
64 | 219 to 221 °C | CCn1c(C2CCN(C(=O)OC(C)(C)C)CC2)n[nH]c1=O
65 | 231 to 233 °C | Cn1cnnc1SCC(=O)Nc1cccc(C(=O)O)c1
66 | 174 to 176 °C | NNC(=S)Nc1cccnc1
67 | 59 to 61 °C | NCC(O)CN1CCc2ccccc2C1 (stereo not given)
68 | 112 to 114 °C | O=C(O)c1cccc(Oc2cnccn2)c1
69 | 215 to 217 °C | CCNc1nc(C(=O)O)cs1
70 | 104 to 106 °C | Cn1ccc(N2CCCC(Br)C2=O)n1 (stereo not given)
71 | 92 to 94 °C | CC1CCCN(S(=O)(=O)c2ccc(CN)cc2)C1 (stereo not given)
72 | 136 to 138 °C | O=C1CC(C(F)(F)F)NCCN1 (stereo not given)
73 | 207 to 209 °C | O=C(O)C1CC(=O)N(c2cccc3ccccc23)C1 (stereo not given)
74 | 144 to 148 °C | COc1cn(-c2ccccc2)nc1C(=O)O
75 | 259 to 261 °C | COc1ccc(C(=O)O)cc1-c1ccc(C(C)(C)C)cc1
76 | 279 to 281 °C | O=C(O)c1cc(S(=O)(=O)NCCN2CCCC2)ccc1Cl
77 | 135 to 137 °C | CC(C)(C)OC(=O)Nc1cccc(O)c1
78 | 185 to 187 °C | CCOc1cc(C(=O)O)c(N)cc1OC
79 | 51 to 53 °C | CCNC(=O)CC(=O)O
80 | 184 to 186 °C | CC(C)Sc1ccc([N+](=O)[O-])cc1C(=O)O
81 | 229 to 231 °C | Cc1nn(-c2ccc(C(=O)O)cc2)c(C)c1Br
82 | 139 to 141 °C | O=C(O)C1CCCN1c1ncccn1 (stereo not given)
83 | 79 to 81 °C | COC1CC(C(=O)O)N(C(=O)OC(C)(C)C)C1 (stereo not given)
84 | 121 to 123 °C | Nc1cccc(NC(=O)N2CCCCCC2)c1

Row | melting point | SMILES
85 | 149 to 151 °C | CCCOc1ccc(C=CC(=O)O)cc1OCC
86 | 225 to 227 °C | CSc1nccn1-c1cccc(C(=O)O)c1
87 | 54 to 56 °C | O=C(O)C=CC1CCCCC1
88 | 149 to 151 °C | O=C(O)c1nnn(-c2cccc(F)c2)c1C1CC1
89 | 72 to 74 °C | COC(=O)Nc1ccc(N)cc1F
90 | 119 to 121 °C | COc1ccc(C(=O)N(C)C)cc1N
91 | 85 to 89 °C | CC(=O)NCCc1ccc(C(=O)C(C)Cl)cc1 (stereo not given)
92 | 200 to 202 °C | CCOC(=O)c1sc(-c2ccc(Cl)cc2)cc1N
93 | 144 to 146 °C | NS(=O)(=O)C1CCS(=O)(=O)C1 (stereo not given)
94 | 179 to 181 °C | CC(C)CNS(=O)(=O)c1cc(C(=O)O)c(Cl)cc1Cl
95 | 99 to 101 °C | Cc1nc(N(C)C)sc1C(=O)O
96 | 173 to 175 °C | O=C(O)Cc1csc(-c2ncccn2)n1
97 | 209 to 211 °C | Cc1cn(-c2ccccc2Cl)nc1C(=O)O
98 | 109 to 111 °C | CC1CC(C(=O)O)CC(C)O1 (stereo not given)
99 | 61 to 63 °C | Cc1cccc(C(C)C(=O)O)c1 (stereo not given)
100 | 46 to 48 °C | COc1ccc(CCCCCC(=O)O)cc1
101 | 217 to 219 °C | Cc1ccc(S(=O)(=O)NC2CCCCC2)cc1C(=O)O
102 | 239 to 241 °C | COc1cc(C)cc2c(C)c(C(=O)O)oc12
103 | 171 to 173 °C | O=C(O)c1cccc(OCc2ccc(Cl)cc2)c1
104 | 292 to 295 °C | O=S(=O)(c1ccc(Cl)c(C(F)(F)F)c1)N1CCNCC1
105 | 175 to 186 °C | O=C(O)/C=C/c1ccc(Br)c(Cl)c1

Row | melting point | SMILES
106 | 64 to 66 °C | CC(C)Cc1ccc(CCC(=O)O)cc1
107 | 136 to 138 °C | CC(C)(C)c1ccc(S(N)(=O)=O)cc1
108 | 159 to 161 °C | COC(=O)c1cc(N)cc([N+](=O)[O-])c1
109 | 66 to 68 °C | CCOC(=O)C=Cc1ccc2c(c1)OCO2
110 | 96 to 98 °C | CC(CC(N)=NO)NC(=O)OC(C)(C)C (stereo not given)
111 | 264 to 266 °C | Nc1nnc(N2CCC(C(=O)O)CC2)[nH]1
112 | 155 to 157 °C | O=C(O)C1(c2ccc(Br)cc2)CC1
113 | 114 to 116 °C | O=C(c1ccc(Br)c([N+](=O)[O-])c1)N1CCOCC1
114 | 104 to 106 °C | NCc1cccc(CN2CCCC(C(N)=O)C2)c1 (stereo not given)
115 | 90 to 92 °C | CC(C)(C)OC(=O)N(CC(=O)O)C1CC1
116 | 151 to 153 °C | COc1ccc2c(c1)CC(=O)NCC2
117 | 176 to 178 °C | Cn1c(=O)n(C)c2cc(S(=O)(=O)Cl)ccc21
118 | 126 to 128 °C | Cc1csc(CC(N)=NO)n1
119 | 60 to 62 °C | CC(=O)CC(=O)Nc1ccccc1C(F)(F)F
120 | 119 to 121 °C | CSCc1cc(C(=O)O)ccc1F
121 | 212 to 214 °C | O=C(O)c1c[nH]nn1
122 | 86 to 88 °C | CC(C)COc1ccc(CC(=O)O)cc1
123 | 181 to 183 °C | O=Cc1sc(N2CCOCC2)nc1-c1ccccc1
124 | 168 to 170 °C | CC(C)(C)OC(=O)N1CCN(C(N)=S)CC1
125 | 153 to 155 °C | Nc1nc(CN2CCCCC2)cs1
126 | 172 to 174 °C | CC(C)(C)OC(=O)NCCCn1ccc2cc(C(=O)O)ccc21

Row | melting point | SMILES
127 | 140 to 142 °C | CN(C)c1ccc(NC(=O)NN)cc1
128 | 219 to 221 °C | Cc1nn(C)c2c1NC(=O)CO2
129 | 236 to 238 °C | CC1(C)NC(=O)N2C1=NC(=N)C2(C)C
130 | 201 to 203 °C | Cc1nnnn1C(=Cc1ccccc1)C(=O)O
131 | 229 to 231 °C | O=C(O)c1ccc(N2C(=O)C=CC2=O)cc1
132 | 216 to 218 °C | NC(=O)c1c[nH]c(C2CC2)n1
133 | 53 to 55 °C | O=C(NC1CC1)OCC(F)(F)F
134 | 140 to 142 °C | O=C(Nc1cccnc1)OCC(F)(F)F
135 | 157 to 161 °C | COC(=O)c1noc(C(=O)OC)c1O
136 | 176 to 178 °C | Cc1ccc(NC(=S)NN)cc1C
137 | 162 to 164 °C | O=C(CCl)N(C1CCCCC1)C1CCS(=O)(=O)C1 (stereo not given)
138 | 259 to 261 °C | Cc1ccc(-n2[nH]c(C(=O)O)cc2=O)cc1
139 | 86 to 88 °C | CCOC(=O)c1nn(-c2ccccc2)cc1O
140 | 119 to 121 °C | Cc1ccc(I)c(C(=O)O)c1
141 | 147 to 149 °C | O=C(O)c1cccc(OCc2cccs2)c1
142 | 239 to 241 °C | COc1ccc(Nc2nc(C(=O)O)cs2)cc1
143 | 133 to 135 °C | COc1ccc(CNC(=O)CCl)cc1C(=O)O
144 | 179 to 181 °C | O=S(=O)(c1ccc(S)nc1)N1CCCC1
145 | 75 to 77 °C | CC(C)(C)OC(=O)NC1(CO)CC1
